Where “and” joins values, the source holds several entries; their conditions need not be identical. Equal entries are not always repeated. Inconclusive results and toxic doses are left out. Rule as the data show it: active = T/C of 150% or more; inactive = T/C below 125%.
System: L1210 leukemia ip in BDF1 mice, survival T/C
Experiment: NCI In Vivo Anticancer Drug Screen. Data for tumor model L1210 Leukemia (intraperitoneal) in B6D2F1 (BDF1) mice
Details: endpoint: mean survival time, higher = longer survival
Outline: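 Tumor was transplanted into mice, which were then dosed with test compound or vehicle alone. Survival was recorded for each group, and the treated figure was expressed relative to the control figure.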

[1] = dose: 100.0 mg/kg/injection, schedule: Q01DX001 (ip), vehicle: saline
[2] = dose: 100.0 mg/kg/injection, schedule: Q01DX009 (ip), vehicle: Klucel (hydroxypropylcellulose) (HPC)
[3] = dose: 100.0 mg/kg/injection, schedule: Q04DX003 (ip), vehicle: Klucel (hydroxypropylcellulose) (HPC)
[4] = dose: 200.0 mg/kg/injection, schedule: Q01DX001 (ip), vehicle: saline
[5] = dose: 200.0 mg/kg/injection, schedule: Q01DX009 (ip), vehicle: Klucel (hydroxypropylcellulose) (HPC)
[6] = dose: 200.0 mg/kg/injection, schedule: Q04DX003 (ip), vehicle: Klucel (hydroxypropylcellulose) (HPC)
[7] = dose: 400.0 mg/kg/injection, schedule: Q01DX001 (ip), vehicle: saline
[8] = dose: 400.0 mg/kg/injection, schedule: Q01DX009 (ip), vehicle: Klucel (hydroxypropylcellulose) (HPC)
[9] = dose: 100.0 mg/kg/injection, schedule: Q04DX002 (ip), vehicle: Klucel (hydroxypropylcellulose) (HPC)
[10] = dose: 100.0 mg/kg/injection, schedule: Q01DX001 (ip), vehicle: saline with Tween-80
[11] = dose: 200.0 mg/kg/injection, schedule: Q01DX001 (ip), vehicle: saline with Tween-80
[12] = dose: 400.0 mg/kg/injection, schedule: Q01DX001 (ip), vehicle: saline with Tween-80
[13] = dose: 50.0 mg/kg/injection, schedule: Q01DX009 (ip), vehicle: Klucel (hydroxypropylcellulose) (HPC)

Measured: T/C

COc1ccc(CCNC(=O)Cc2ccc(OC)c(OC)c2)cc1OC
inactive: dose: 12.5 mg/kg/injection, schedule: Q04DX003 (ip), vehicle: saline with Tween-80 94 % of control | dose: 25.0 mg/kg/injection, schedule: Q04DX003 (ip), vehicle: saline with Tween-80 110 % of control | dose: 50.0 mg/kg/injection, schedule: Q04DX003 (ip), vehicle: saline with Tween-80 100 % of control | [1] 98 % of control | [2] 94 % of control | dose: 100.0 mg/kg/injection, schedule: Q01DX009 (ip), vehicle: saline sonified 100 % of control | dose: 100.0 mg/kg/injection, schedule: Q01DX009 (ip), vehicle: saline with Tween-80 86 % of control | [3] 105 % of control | dose: 100.0 mg/kg/injection, schedule: Q04DX003 (ip), vehicle: saline with Tween-80 107 % of control | [4] 92 % of control | [5] 96 % of control | dose: 200.0 mg/kg/injection, schedule: Q01DX009 (ip), vehicle: saline sonified 100 % of control | dose: 200.0 mg/kg/injection, schedule: Q01DX009 (ip), vehicle: saline with Tween-80 95 % of control | [6] 112 % of control | dose: 200.0 mg/kg/injection, schedule: Q04DX003 (ip), vehicle: saline with Tween-80 94 % of control | [7] 93 % of control | [8] 98 % of control | dose: 400.0 mg/kg/injection, schedule: Q01DX009 (ip), vehicle: saline sonified 90 % of control | dose: 400.0 mg/kg/injection, schedule: Q01DX009 (ip), vehicle: saline with Tween-80 91 % of control | dose: 400.0 mg/kg/injection, schedule: Q04DX003 (ip), vehicle: Klucel (hydroxypropylcellulose) (HPC) 104 % of control | dose: 400.0 mg/kg/injection, schedule: Q04DX003 (ip), vehicle: saline with Tween-80 92 % of control

Cc1cccc2c(=O)c3ccccc3oc12
inactive: [1] 98 % of control and 104 % of control | [4] 95 % of control and 101 % of control | [7] 93 % of control and 97 % of control

Nc1c(S(=O)(=O)O)cc(Nc2cccc(CO)c2)c2c1C(=O)c1ccccc1C2=O
inactive: dose: 5.0 mg/kg/injection, schedule: Q01DX001 (ip), vehicle: saline 105 % of control | dose: 10.0 mg/kg/injection, schedule: Q01DX001 (ip), vehicle: saline 103 % of control | dose: 20.0 mg/kg/injection, schedule: Q01DX001 (ip), vehicle: saline 101 % of control | dose: 40.0 mg/kg/injection, schedule: Q01DX001 (ip), vehicle: saline 94 % of control | dose: 80.0 mg/kg/injection, schedule: Q01DX001 (ip), vehicle: saline 95 % of control | [1] 95 % of control | dose: 100.0 mg/kg/injection, schedule: Q04DX003 (ip), vehicle: saline 101 % of control | [4] 93 % of control | dose: 200.0 mg/kg/injection, schedule: Q04DX003 (ip), vehicle: saline 104 % of control | dose: 400.0 mg/kg/injection, schedule: Q04DX003 (ip), vehicle: saline 92 % of control

CCC[CH2][Sn](=[O])[CH2]CCC
inactive: dose: 1.5 mg/kg/injection, schedule: Q01DX001 (ip), vehicle: saline with Tween-80 90 % of control | dose: 3.0 mg/kg/injection, schedule: Q01DX001 (ip), vehicle: saline with Tween-80 100 % of control | dose: 6.0 mg/kg/injection, schedule: Q01DX001 (ip), vehicle: saline with Tween-80 107 % of control

Cc1cccc(C)c1NC(=O)N1CCN(C)CC1
inactive: dose: 25.0 mg/kg/injection, schedule: Q04DX002 (ip), vehicle: saline with Tween-80 108 % of control | dose: 50.0 mg/kg/injection, schedule: Q04DX002 (ip), vehicle: saline with Tween-80 111 % of control | [2] 108 % of control | [9] 88 % of control | dose: 100.0 mg/kg/injection, schedule: Q04DX002 (ip), vehicle: saline with Tween-80 101 % of control | [5] 103 % of control

Cc1ccc2c(c1)c(C)c(C)c(=O)n2C
inactive: [1] 98 % of control | [4] 93 % of control | [7] 96 % of control

c1ccc(N2CCN(Cc3ccc4ccccc4c3)CC2)cc1
inactive: [10] 96 % of control | [11] 100 % of control | [12] 91 % of control

O=S=Nc1cc(Cl)c(Cl)cc1Cl
inactive: dose: 25.0 mg/kg/injection, schedule: Q04DX002 (ip), vehicle: saline 103 % of control | dose: 50.0 mg/kg/injection, schedule: Q04DX002 (ip), vehicle: saline 100 % of control | dose: 100.0 mg/kg/injection, schedule: Q04DX002 (ip), vehicle: saline 95 % of control and 109 % of control

Cc1ccc(NC(=O)c2cc([N+](=O)[O-])cc([N+](=O)[O-])c2)c(C)c1
inactive: [9] 94 % of control | dose: 200.0 mg/kg/injection, schedule: Q04DX002 (ip), vehicle: Klucel (hydroxypropylcellulose) (HPC) 94 % of control | dose: 400.0 mg/kg/injection, schedule: Q04DX002 (ip), vehicle: Klucel (hydroxypropylcellulose) (HPC) 91 % of control

Cc1coc(NS(=O)(=O)c2ccc(N=Nc3ccc(O)c4ncccc34)cc2)c1C
inactive: [1] 102 % of control | [4] 108 % of control

CCCCSC1CC(=O)N(CCCC)C1=O (stereo not drawn)
inactive: dose: 75.0 mg/kg/injection, schedule: Q04DX003 (ip), vehicle: saline with Tween-80 100 % of control | [10] 103 % of control | dose: 150.0 mg/kg/injection, schedule: Q04DX003 (ip), vehicle: saline with Tween-80 90 % of control | [11] 98 % of control | dose: 300.0 mg/kg/injection, schedule: Q04DX003 (ip), vehicle: saline with Tween-80 92 % of control | [12] 101 % of control

CN(CCO)C1CCCCCCC1
inactive: dose: 100.0 mg/kg/injection, schedule: Q01DX001 (ip), vehicle: acetone 100 % of control

C=CCSc1nccnc1C
inactive: [13] 100 % of control | [2] 103 % of control | [5] 110 % of control

COc1ccc(-c2cnc(=O)[nH]c2N)cc1
inactive: [3] 101 % of control | [6] 104 % of control

CCN(CC)CCNC(=O)c1ccc(N=Cc2cc(Cl)cc(Cl)c2O)cc1
inactive: [2] 100 % of control | [5] 96 % of control

CCCC(CCC)=NCCCO
inactive: dose: 75.0 mg/kg/injection, schedule: Q01DX001 (ip), vehicle: carboxymethylcellulose (CMC) 96 % of control | dose: 150.0 mg/kg/injection, schedule: Q01DX001 (ip), vehicle: carboxymethylcellulose (CMC) 102 % of control

CCC(CO)NC(=O)/C=C/c1ccccc1Cl (stereo not drawn)
inactive: [10] 95 % of control | [11] 100 % of control | [12] 92 % of control

C[Si](C)(C)OSc1ccccc1[N+](=O)[O-]
inactive: dose: 12.5 mg/kg/injection, schedule: Q01DX009 (ip), vehicle: Klucel (hydroxypropylcellulose) (HPC) 93 % of control | dose: 25.0 mg/kg/injection, schedule: Q01DX009 (ip), vehicle: Klucel (hydroxypropylcellulose) (HPC) 92 % of control | [13] 93 % of control | [2] 104 % of control | [5] 95 % of control | [8] 97 % of control

CCOC(=O)c1ccc(NCCCc2c(C)nc(N)[nH]c2=O)cc1
inactive: dose: 75.0 mg/kg/injection, schedule: Q01DX001 (ip), vehicle: saline with Tween-80 92 % of control | dose: 150.0 mg/kg/injection, schedule: Q01DX001 (ip), vehicle: saline with Tween-80 87 % of control | dose: 300.0 mg/kg/injection, schedule: Q01DX001 (ip), vehicle: saline with Tween-80 90 % of control

c1ccc(Cn2ccnn2)cc1
inactive: [13] 96 % of control | [2] 92 % of control | [5] 115 % of control

From PubChem BioAssay AID248 (DTP/NCI, 2004)
